Earlier results as cited in patent publication US7270977B2, “Polypeptides for identifying fungicidally active compounds” (priority 2001, dated 2007).
Entries after “also recorded” stand apart in the source; their conditions may differ.

Tests used:
[1] = test system: C. albicans cells; conditions: cited from earlier work; for effect on C. albicans: in words
[2] = test system: Candida guilliermondii; conditions: in words; cited from earlier work
[3] = target: recombinant IMPDH from Pneumocystis carinii (Pneumocystis carinii, UniProt Q12658); conditions: recombinant P. carinii IMPDH; read-out: concentration resulting in 50% inhibition of the activity of the recombinant IMPDH; cited from earlier work
[4] = test system: Cryptococcus neoformans; conditions: in words; cited from earlier work
[5] = test system: Candida pseudotropicalis; conditions: in words; cited from earlier work
[6] = test system: Hansenula anomala; conditions: in words; cited from earlier work
[7] = test system: Candida krusei; conditions: in words; cited from earlier work
[8] = test system: S. cerevisiae; conditions: in words; cited from earlier work

Sequence of recombinant IMPDH from Pneumocystis carinii (Q12658 76-529): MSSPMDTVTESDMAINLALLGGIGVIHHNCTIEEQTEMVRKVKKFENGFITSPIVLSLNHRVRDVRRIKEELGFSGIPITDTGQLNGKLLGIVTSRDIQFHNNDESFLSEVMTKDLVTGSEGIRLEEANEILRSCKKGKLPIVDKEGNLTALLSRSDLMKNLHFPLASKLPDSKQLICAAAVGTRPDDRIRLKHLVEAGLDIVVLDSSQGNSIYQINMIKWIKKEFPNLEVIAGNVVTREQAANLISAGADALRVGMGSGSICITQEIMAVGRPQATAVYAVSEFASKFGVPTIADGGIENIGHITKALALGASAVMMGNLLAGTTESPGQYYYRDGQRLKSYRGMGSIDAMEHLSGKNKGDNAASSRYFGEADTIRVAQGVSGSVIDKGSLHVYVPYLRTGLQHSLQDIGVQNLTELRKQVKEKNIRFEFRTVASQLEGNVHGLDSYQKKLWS

SMILES	effect on C. albicans [1]	effect on growth in vitro [2]	IC50 [3] [µM]	effect on growth in vitro [4]	effect on growth in vitro [5]	concentration inhibiting growth of C. albicans cells ([1]; wild-type cells) [µg/mL]	effect on growth in vitro [6]	effect on growth in vitro [7]	effect on growth in vitro [8]
NC(=O)c1ncn([C@@H]2O[C@H](CO)[C@@H](O)[C@H]2O)c1O [mizoribine]	virtually ineffective	–	–	–	–	–	–	–	–
COc1c(C)c2c(c(O)c1C/C=C(\C)CCC(=O)O)C(=O)OC2 [mycophenolic acid]	inhibits in vitro the growth; also recorded: acts fungistatically	ineffective	25	inhibits in vitro the growth	ineffective	1	ineffective	ineffective	ineffective; also recorded: no effect
